Literature values, collected in US12551426B2, “Method for treating hair, comprising the application of a first agent (a) having a silane and a chromophoric compound, and a second agent (b) having a film-forming polymer” (Henkel AG & Co. KGaA, priority 2018, dated 2026).

Conditions: 25° C.

O=S(=O)([O-])c1ccc(N=Nc2c(O)ccc3ccccc23)cc1.[Na+] [Acid Orange 7, sodium salt of 4-[(2-hydroxy-1-naphthyl)azo]benzene sulphonate]
solubility in water: more than 7 g/L

O=C([O-])c1c(Cl)c(Cl)c(Cl)c(Cl)c1-c1c2c(Br)cc(=O)c(Br)c-2oc2c(Br)c(O)cc(Br)c12.O=C([O-])c1c(Cl)c(Cl)c(Cl)c(Cl)c1-c1c2c(Br)cc(=O)c(Br)c-2oc2c(Br)c(O)cc(Br)c12.[Na+].[Na+] [Acid Red 92, disodium salt of 3,4,5,6-tetrachloro-2-(1,4,5,8-tetrabromo-6-hydroxy-3-oxoxanthen-9-yl)benzoic acid]
solubility in water: greater than 10 g/L

Nc1cc(S(=O)(=O)[O-])cc2cc(S(=O)(=O)[O-])c(N=Nc3ccccc3)c(O)c12.[Na+].[Na+] [Acid Red 33, diantrium salt of 5-amino-4-hydroxy-3-(phenylazo)-naphthalene-2,7-disulphonate]
solubility in water: 2.5 mg/mL

Acid Yellow 3
solubility in water: 20 mg/mL

O=C([O-])C1=NN(c2ccc(S(=O)(=O)[O-])cc2)C(=O)C1N=Nc1ccc(S(=O)(=O)[O-])cc1.[Na+].[Na+].[Na+] (centres unmarked) [Acid Yellow 23, trisodium salt of 4,5-dihydro-5-oxo-1-(4-sulfophenyl)-4-((4-sulfophenyl)azo)-1H-pyrazole-3-carboxylic acid]
solubility in water (in words): highly soluble in water
